We go through 5 compounds from patent publication US20260176320A1, “MODULATORS OF G-PROTEIN COUPLED RECEPTORS” (priority 2018, published 2026).

Holding throughout (type): cell-based
The target in one test is T1, GIP-R (Homo sapiens, UniProt P48546).
T1 sequence (P48546 22-466): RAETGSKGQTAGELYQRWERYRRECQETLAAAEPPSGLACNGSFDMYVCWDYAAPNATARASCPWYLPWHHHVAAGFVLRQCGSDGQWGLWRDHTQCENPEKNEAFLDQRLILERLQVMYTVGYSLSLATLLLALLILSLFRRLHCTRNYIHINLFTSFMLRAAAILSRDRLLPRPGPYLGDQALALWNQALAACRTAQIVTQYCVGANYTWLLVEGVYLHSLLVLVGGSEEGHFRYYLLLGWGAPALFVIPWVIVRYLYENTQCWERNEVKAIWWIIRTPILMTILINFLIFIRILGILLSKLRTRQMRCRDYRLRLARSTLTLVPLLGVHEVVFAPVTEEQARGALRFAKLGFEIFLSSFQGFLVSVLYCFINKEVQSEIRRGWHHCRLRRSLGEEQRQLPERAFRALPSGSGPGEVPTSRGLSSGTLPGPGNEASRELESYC
The test can be described thus: HitHunter cAMP assay (GIP-R). Particulars: cAMP; for Emax: read-out: (Emax) GIP-R; for EC50: read-out: EC50 GIP-R/nM. The gist of the method: (§1)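 Agonist stimulation lasts 30 min at room temperature on 10,000 cells per well, with phosphodiesterase blocked by 625 μM IBMX. Accumulated cAMP is quantified by competitive antibody luminescence after overnight development.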

Test [1] deals with T2, GLP-1R (Homo sapiens, UniProt P43220). The test can be described thus: HitHunter cAMP assay (GLP-1R). Particulars: cAMP; for Emax: read-out: (Emax) GLP-1R; for EC50: read-out: EC50 GLP-1R/nM. The gist of the method:
as §1

Test [2] concerns the target T2, GLP-1R. The test can be described thus: PathHunter β-arrestin assay. As to the method: The effects of the chemical entities described herein on β-arrestin signaling and associated downstream processes (e.g., those delineated above) can be assessed using conventional methods, e.g., PathHunter β-arrestin Assay for determining β-arresting coupling (see Examples section). […] It has been shown that b-arrestin coupling is a key strep in receptor internalization and subsequent de-sensitization and attenuation of signaling.
5,000 cells were seeded in appropriate cell culture media per well in a low volume 384-well tissue culture plate. The assay plate was incubated with cells overnight at 37° C. and 5% CO2. The media was removed, and 5 μL of appropriate cell culture media containing 0.2% BSA was added. Agonist serial dilutions in a separate 384 well dilution plate in a 22-point series of 2× dilutions of agonist in DMSO were performed as follows. 80 μL of the highest concentration of Agonist/DMSO was added to well No. 1. 40 μL was removed from well No. 1, and added to well No. 2, followed by gentle mixing. […] This process was repeated until well No. 22. Additional serial dilutions for additional agonists were set up in a similar manner. 100 nL of each 2× agonist serial dilution was added in duplicate to the designated agonist rows of the assay plate using the Labcyte ECHO. Assay plate was incubated for 90 minutes at 37° C. and 5% CO2. A stock of Working Detection Solution in a separate 15 ml polypropylene tube was prepared by mixing 19 parts of Cell Assay Buffer, 5 parts of Substrate Reagent 1, 1 part Substrate Reagent 2. […] Plates were spun down briefly. Assay plate was incubated for 3 hour at room temperature in the dark for the immunocompetition reaction to occur. Samples were read on Tecan i-control plate reader using luminescence mode with 100 ms integration time. Data analysis was performed using GraphPad Prism.

Setting [3] is: PathHunter β-arrestin assay, read-out: β-arrestin activity EC50.

Molecules are shown by their SMILES. Read-outs that look alike come from different tables or passages of the source. Numbered stars: 1 amine (or outer) side, 2 acyl side, 3 side chain; on linkers, the order of the positions; unused ones are H or OH. Square brackets hold non-standard residues; d marks the D form. Side chains are listed from the residue outwards. Peptide text beside a SMILES is read from it. * marks the point of attachment. X1 = O=C(CSCC(=O)*)NCCN1C(=O)c2ccccc2C1=O; γGlu = O=C(O)[C@H](CCC(=O)[*:2])N[*:1]; X2 = O=C(CSCC(=O)*)NCCN1C(=O)CSC1=O; Palmitoyl = CCCCCCCCCCCCCCCC(=O)*; Aib = CC(C)(N)C(=O)O Where only a bound is given, the exact number is not on record here.

T2 sequence (P43220 24-463): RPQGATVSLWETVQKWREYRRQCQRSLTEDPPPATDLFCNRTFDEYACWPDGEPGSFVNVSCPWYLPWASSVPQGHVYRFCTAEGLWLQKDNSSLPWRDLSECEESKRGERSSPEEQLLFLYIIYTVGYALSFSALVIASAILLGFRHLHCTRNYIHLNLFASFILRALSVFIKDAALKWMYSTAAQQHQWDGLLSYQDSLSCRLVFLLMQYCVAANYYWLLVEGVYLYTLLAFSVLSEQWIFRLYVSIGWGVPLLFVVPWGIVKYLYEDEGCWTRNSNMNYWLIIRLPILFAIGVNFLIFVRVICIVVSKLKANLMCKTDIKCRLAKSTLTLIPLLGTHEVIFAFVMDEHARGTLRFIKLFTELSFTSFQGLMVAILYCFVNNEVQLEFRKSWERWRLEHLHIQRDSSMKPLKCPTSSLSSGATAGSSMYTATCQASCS

For the compound `CCCCCCCCCCCCCCCC(=O)N[C@@H](CCC(=O)NCCCC[C@H](NC(=O)[C@H](CO)NC(=O)[C@@H]1CCCN1C(=O)[C@@H]1CCCN1C(=O)[C@@H]1CCCN1C(=O)[C@H](C)NC(=O)CNC(=O)[C@H](CO)NC(=O)[C@H](CO)NC(=O)[C@@H]1CCCN1C(=O)CNC(=O)CNC(=O)[C@H](C)NC(=O)[C@H](CC(C)C)NC(=O)[C@H](CC(C)C)NC(=O)[C@H](Cc1c[nH]c2ccccc12)NC(=O)[C@H](CC(N)=O)NC(=O)[C@@H](NC(=O)[C@H](Cc1ccccc1)NC(=O)[C@H](CCC(=O)O)NC(=O)C(C)(C)NC(=O)[C@H](C)NC(=O)[C@H](C)NC(=O)[C@H](CCC(N)=O)NC(=O)[C@H](CCCCN)NC(=O)[C@H](CC(=O)O)NC(=O)[C@H](CC(C)C)NC(=O)[C@H](Cc1ccc(O)cc1)NC(=O)[C@@H](NC(=O)[C@H](CO)NC(=O)[C@H](Cc1ccc(O)cc1)NC(=O)[C@H](CC(=O)O)NC(=O)[C@H](CO)NC(=O)[C@@H](NC(=O)[C@H](Cc1ccccc1)NC(=O)[C@@H](NC(=O)CNC(=O)[C@H](CCC(=O)O)NC(=O)CCCNC(=O)CCN1CCCCC1=O)[C@@H](C)O)[C@@H](C)O)[C@@H](C)CC)C(C)C)C(N)=O)C(=O)O` [Compound 15], the Emax at GIP-R (Table 3) was found to be 20%; at GIP-R (Table 3A), 20%; at GLP-1R [1] (Table 3), 93%; at GLP-1R [1] (Table 3A) it was 93%. Moreover, the EC50 is 1 to 10 nM on GIP-R (Table 3); 10 to 100 nM at GIP-R (Table 3A); 0.1 to 1 nM on GLP-1R [1] (Table 3); 0.1 to 1 nM at GLP-1R [1] (Table 3A); over 1000 nM on GLP-1R [2] (setting [3]).
On to `CCCCCCCCCCCCCCCC(=O)N[C@@H](CCC(=O)NCCCC[C@H](NC(=O)[C@H](CO)NC(=O)[C@@H]1CCCN1C(=O)[C@@H]1CCCN1C(=O)[C@@H]1CCCN1C(=O)[C@H](C)NC(=O)CNC(=O)[C@H](CO)NC(=O)[C@H](CO)NC(=O)[C@@H]1CCCN1C(=O)CNC(=O)CNC(=O)[C@H](C)NC(=O)[C@H](CC(C)C)NC(=O)[C@H](CC(C)C)NC(=O)[C@H](Cc1c[nH]c2ccccc12)NC(=O)[C@H](CC(N)=O)NC(=O)[C@@H](NC(=O)[C@H](Cc1ccccc1)NC(=O)[C@H](CCC(=O)O)NC(=O)C(C)(C)NC(=O)[C@H](C)NC(=O)[C@H](C)NC(=O)[C@H](CCC(N)=O)NC(=O)[C@H](CCCCN)NC(=O)[C@H](CC(=O)O)NC(=O)[C@H](CC(C)C)NC(=O)[C@H](Cc1ccc(O)cc1)NC(=O)[C@@H](NC(=O)[C@H](CO)NC(=O)[C@H](Cc1ccc(O)cc1)NC(=O)[C@H](CC(=O)O)NC(=O)[C@H](CO)NC(=O)[C@@H](NC(=O)[C@H](Cc1ccccc1)NC(=O)[C@@H](NC(=O)CNC(=O)[C@H](CCC(=O)O)NC(=O)CSCC(=O)NCCN1CCCNC1=O)[C@@H](C)O)[C@@H](C)O)[C@@H](C)CC)C(C)C)C(N)=O)C(=O)O` [Compound 31], for which the Emax on GIP-R (Table 3) turned out to be 37%; at GIP-R (Table 3A), 37%; at GLP-1R [1] (Table 3), 102%; at GLP-1R [1] (Table 3A), 102%. The EC50 at GIP-R (Table 3) was 10 to 100 nM; on GIP-R (Table 3A) it was 10 to 100 nM; at GLP-1R [1] (Table 3), 1 to 10 nM; at GLP-1R [1] (Table 3A), 1 to 10 nM; on GLP-1R [2] (setting [3]), over 1000 nM.
Regarding `CCCCCCCCCCCCCCCC(=O)N[C@@H](CCC(=O)NCCCC[C@H](NC(=O)[C@H](CO)NC(=O)[C@@H]1CCCN1C(=O)[C@@H]1CCCN1C(=O)[C@@H]1CCCN1C(=O)[C@H](C)NC(=O)CNC(=O)[C@H](CO)NC(=O)[C@H](CO)NC(=O)[C@@H]1CCCN1C(=O)CNC(=O)CNC(=O)[C@H](C)NC(=O)[C@H](CC(C)C)NC(=O)[C@H](CC(C)C)NC(=O)[C@H](Cc1c[nH]c2ccccc12)NC(=O)[C@H](CC(N)=O)NC(=O)[C@@H](NC(=O)[C@H](Cc1ccccc1)NC(=O)[C@H](CCC(=O)O)NC(=O)C(C)(C)NC(=O)[C@H](C)NC(=O)[C@H](C)NC(=O)[C@H](CCC(N)=O)NC(=O)[C@H](CCCCN)NC(=O)[C@H](CC(=O)O)NC(=O)[C@H](CC(C)C)NC(=O)[C@H](Cc1ccc(O)cc1)NC(=O)[C@@H](NC(=O)[C@H](CO)NC(=O)[C@H](Cc1ccc(O)cc1)NC(=O)[C@H](CC(=O)O)NC(=O)[C@H](CO)NC(=O)[C@@H](NC(=O)[C@H](Cc1ccccc1)NC(=O)[C@@H](NC(=O)CNC(=O)[C@H](CCC(=O)O)NC(=O)CCCC(=O)NCCN1CCCCC1=O)[C@@H](C)O)[C@@H](C)O)[C@@H](C)CC)C(C)C)C(N)=O)C(=O)O` [Compound 27], the Emax at GIP-R (Table 3) was found to be 45%; on GIP-R (Table 3A), 45%; on GLP-1R [1] (Table 3), 95%; on GLP-1R [1] (Table 3A), 95%. Besides, the EC50 at GIP-R (Table 3) is 1 to 10 nM; on GIP-R (Table 3A), 1 to 10 nM; on GLP-1R [1] (Table 3) it was 0.1 to 1 nM; at GLP-1R [1] (Table 3A), 0.1 to 1 nM; at GLP-1R [2] (setting [3]), over 1000 nM.
For `CCCCCCCCCCCCCCCC(=O)N[C@@H](CCC(=O)NCCCC[C@H](NC(=O)[C@H](CO)NC(=O)[C@@H]1CCCN1C(=O)[C@@H]1CCCN1C(=O)[C@@H]1CCCN1C(=O)[C@H](C)NC(=O)CNC(=O)[C@H](CO)NC(=O)[C@H](CO)NC(=O)[C@@H]1CCCN1C(=O)CNC(=O)CNC(=O)[C@H](C)NC(=O)[C@H](CC(C)C)NC(=O)[C@H](CC(C)C)NC(=O)[C@H](Cc1c[nH]c2ccccc12)NC(=O)[C@H](CC(N)=O)NC(=O)[C@@H](NC(=O)[C@H](Cc1ccccc1)NC(=O)[C@H](CCC(=O)O)NC(=O)C(C)(C)NC(=O)[C@H](C)NC(=O)[C@H](C)NC(=O)[C@H](CCC(N)=O)NC(=O)[C@H](CCCCN)NC(=O)[C@H](CC(=O)O)NC(=O)[C@H](CCSC)NC(=O)[C@H](C)NC(=O)[C@@H](NC(=O)[C@H](CO)NC(=O)[C@H](Cc1ccc(O)cc1)NC(=O)[C@H](CC(=O)O)NC(=O)[C@H](CO)NC(=O)[C@@H](NC(=O)[C@H](Cc1ccccc1)NC(=O)[C@@H](NC(=O)CNC(=O)[C@H](CCC(=O)O)NC(=O)CSCC(=O)NCCN1C(=O)CSC1=O)[C@@H](C)O)[C@@H](C)O)[C@@H](C)CC)C(C)C)C(N)=O)C(=O)O` [Compound 71] (X2-EGTFTSDYSIAMDKQAA[Aib]EFVNWLLAGGPSSGAPPPSK([γGlu-Palmitoyl])-NH2), the Emax was 77 to 87% on GIP-R (Table 3), 77 to 87% on GIP-R (Table 3A), 102% at GLP-1R [1] (Table 3) and 102% at GLP-1R [1] (Table 3A). The EC50 is 1 to 10 nM at GIP-R (Table 3); 1 to 10 nM at GIP-R (Table 3A); 0.1 to 10 nM on GLP-1R [1] (Table 3); 0.1 to 10 nM at GLP-1R [1] (Table 3A); over 1000 nM on GLP-1R [2] (setting [3]).
Take `CC[C@H](C)[C@H](NC(=O)[C@H](CO)NC(=O)[C@H](Cc1ccc(O)cc1)NC(=O)[C@H](CC(=O)O)NC(=O)[C@H](CO)NC(=O)[C@@H](NC(=O)[C@H](Cc1ccccc1)NC(=O)[C@@H](NC(=O)CNC(=O)[C@H](CCC(=O)O)NC(=O)CSCC(=O)NCCN1C(=O)c2ccccc2C1=O)[C@@H](C)O)[C@@H](C)O)C(=O)N[C@@H](Cc1ccc(O)cc1)C(=O)N[C@@H](CC(C)C)C(=O)N[C@@H](CC(=O)O)C(=O)N[C@@H](CCC(=O)O)C(=O)N[C@@H](CCC(N)=O)C(=O)N[C@@H](C)C(=O)N[C@@H](C)C(=O)NC(C)(C)C(=O)N[C@@H](CCC(=O)O)C(=O)N[C@@H](Cc1ccccc1)C(=O)N[C@H](C(=O)N[C@@H](CC(N)=O)C(=O)N[C@@H](Cc1c[nH]c2ccccc12)C(=O)N[C@@H](CC(C)C)C(=O)N[C@@H](CC(C)C)C(=O)N[C@@H](C)C(=O)NCC(=O)NCC(=O)N1CCC[C@H]1C(=O)N[C@@H](CO)C(=O)N[C@@H](CO)C(=O)NCC(=O)N[C@@H](C)C(=O)N1CCC[C@H]1C(=O)N1CCC[C@H]1C(=O)N1CCC[C@H]1C(=O)N[C@@H](CO)C(=O)N[C@@H](CCCCN)C(N)=O)C(C)C` [compound 150] (X1-EGTFTSDYSIYLDEQAA[Aib]EFVNWLLAGGPSSGAPPPSK-NH2): the Emax on GIP-R (Table 3) lay within 118 to 130%. For the same compound, the EC50 at GLP-1R [2] is over 1000 nM.
